13 compounds from PubChem BioAssay (NCI) can be followed below.

Values joined by “and” are separate entries in the source; they are usually repeats but may differ in a detail not shown here. Equal entries are not always repeated.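 Test compounds were applied to cells in 96-well plates for 48 hours at 5 doses. GI50 = concentration required for 50% inhibition of growth. TGI denotes the concentration required for complete inhibition of growth.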 Where a SMILES comes first, the peptide text is derived from it. [ ]: non-standard residue; d: D form. The star is where a group is joined. Phe(4-NO2) = N[CH](Cc1ccc([N+](=O)[O-])cc1)C(=O)O; Boc = CC(C)(C)OC(=O)* Bounds are passed on as bounds.

Test systems include UACC-257 melanoma; NCI-H226 lung; SK-MEL-28 melanoma; SNB-19 CNS; OVCAR-5 ovarian; MDA-N; HL-60(TB) leukemia; ACHN renal; MDA-MB-231 breast; UACC-62 melanoma.
What all share (assay): growth of human tumour cells (NCI), 48 h

As to `CC(=O)OCC1OC(SC2=NC(=O)CS2)C(OC(C)=O)C(OC(C)=O)C1OC(C)=O` (configuration not stated), the TGI in the test on UACC-257 melanoma, with NCI-H226 lung, with SK-MEL-28 melanoma, with SNB-19 CNS, with OVCAR-5 ovarian and with MDA-N was above 100 µM each time. The TGI in the test with HL-60(TB) leukemia is 91.2 µM and 70.7 µM; in the test on ACHN renal it was above 100 µM; in the test with MDA-MB-231 breast, above 100 µM; with UACC-62 melanoma, above 100 µM.
Consider `CCCC1=C(OC)C(=O)c2c(C)cc(Cl)nc2C1=O`, for which the TGI with UACC-257 melanoma amounted to 19.7 µM; with NCI-H226 lung it was 33.2 µM; with SK-MEL-28 melanoma, 16.7 µM; in the test with SNB-19 CNS, 34.9 µM; in the test on OVCAR-5 ovarian, 29.1 µM; with MDA-N, 3.33 µM. Besides, the TGI came out at 3.65 µM in the test with HL-60(TB) leukemia, 17.4 µM with ACHN renal, 19.5 µM in the test with MDA-MB-231 breast and 13.8 µM in the test on UACC-62 melanoma.
With `CC(C)OP(=O)(OC(C)C)C(C(C)C)N(C)C(N)=NC#N` (configuration not stated), the TGI in the test on UACC-257 melanoma, in the test with NCI-H226 lung, in the test on SK-MEL-28 melanoma, in the test with SNB-19 CNS, in the test with MDA-N and in the test on HL-60(TB) leukemia was above 100 µM throughout. Moreover, the TGI in the test on ACHN renal, with MDA-MB-231 breast and with UACC-62 melanoma was above 100 µM throughout.
In the case of `Cc1cc(S(=O)(=O)Nc2nc3cscc3c(=O)n2N)c(S)cc1Cl`, the TGI was above 100 µM in the test on UACC-257 melanoma; 48.5 µM in the test with NCI-H226 lung; above 100 µM with SK-MEL-28 melanoma; above 100 µM in the test on SNB-19 CNS; 64 µM in the test on OVCAR-5 ovarian; above 100 µM in the test with MDA-N. The TGI in the test on HL-60(TB) leukemia, in the test with ACHN renal, in the test on MDA-MB-231 breast and with UACC-62 melanoma was above 100 µM in each case.
Take `O=C1C(N2CCN(CCOCCO)CC2)=C(Cl)C(=O)c2ncccc21`: the TGI in the test on UACC-257 melanoma was 39.9 µM; in the test on NCI-H226 lung, above 100 µM; in the test on SK-MEL-28 melanoma, 43.7 µM; with OVCAR-5 ovarian it was 57.1 µM; in the test with MDA-N, 3.76 µM and 35 µM; with HL-60(TB) leukemia, 8.29 µM and 5.91 µM. Also, the TGI turned out to be 33.4 µM with ACHN renal, 34.2 µM with MDA-MB-231 breast and 43.8 µM in the test with UACC-62 melanoma. In addition, the GI50 in the test on NCI-H226 lung was above 100 µM; in the test on MDA-N it was 19.4 µM; in the test with HL-60(TB) leukemia, 2.24 µM.
With `Cc1cc(C)nc(NS(=O)(=O)c2ccc(NNc3c4ccccc4nc4c(C(=O)Nc5ccc(S(=O)(=O)Nc6cc(C)on6)cc5)cccc34)cc2)n1`, the TGI was above 100 µM with UACC-257 melanoma; 63.8 µM with NCI-H226 lung; above 100 µM in the test on SNB-19 CNS; above 100 µM in the test on OVCAR-5 ovarian; above 100 µM in the test with MDA-N; 80.6 µM with HL-60(TB) leukemia. Also, the TGI in the test with ACHN renal was above 100 µM; with MDA-MB-231 breast, 94.4 µM; in the test with UACC-62 melanoma it was above 100 µM.
Consider `Oc1cccc2c(Br)ccnc12`, for which the TGI is 16.1 µM in the test on UACC-257 melanoma; 29.8 µM in the test with NCI-H226 lung; 38.3 µM with SK-MEL-28 melanoma; 64.1 µM in the test on SNB-19 CNS; 20 µM in the test on OVCAR-5 ovarian; above 50.4 µM in the test with MDA-N. Besides, the TGI in the test with HL-60(TB) leukemia came to 0.983 µM; in the test with ACHN renal it was 27.5 µM; in the test on MDA-MB-231 breast, 16.3 µM; with UACC-62 melanoma, 11.1 µM.
Regarding `Cc1cc2nc3ccccc3n2c2ccccc12`, the TGI with UACC-257 melanoma, in the test with NCI-H226 lung, in the test with SK-MEL-28 melanoma, with SNB-19 CNS, with OVCAR-5 ovarian and in the test with MDA-N was above 10 µM in each case. The TGI in the test on HL-60(TB) leukemia, with ACHN renal, in the test with MDA-MB-231 breast and in the test with UACC-62 melanoma was above 10 µM in each case.
Turning to `C=CC(C)(C)/C=C/c1ccc(O)cc1`, the TGI in the test with UACC-257 melanoma, in the test with SK-MEL-28 melanoma, with SNB-19 CNS, in the test on OVCAR-5 ovarian, in the test on MDA-N and in the test with HL-60(TB) leukemia was above 100 µM in each case. Besides, the TGI in the test with ACHN renal, in the test with MDA-MB-231 breast and in the test on UACC-62 melanoma was above 100 µM each time.
On to `CCOC(=O)CCC(NC(=O)C(Cc1ccc([N+](=O)[O-])cc1)NC(=O)OC(C)(C)C)C(=O)NC(CCC(=O)OCC)C(=O)OCC` (configuration not stated) (Boc-[Phe(4-NO2)]-Glu(OEt)-Glu(OEt)-OEt; configuration not given here), for which the TGI in the test with NCI-H226 lung was 35.9 µM; with SK-MEL-28 melanoma, 32.1 µM; in the test on SNB-19 CNS, above 100 µM; in the test with OVCAR-5 ovarian, 46.3 µM; in the test with MDA-N it was 52.6 µM; in the test with HL-60(TB) leukemia, 44 µM. For the same compound, the TGI in the test with ACHN renal is 31.1 µM; with MDA-MB-231 breast it was above 100 µM; in the test with UACC-62 melanoma, 32.4 µM.
On to `COc1cccc(NC(=O)CC(=O)n2nc(-c3ccccc3)c(N=Nc3ccc(Cl)cc3)c2-c2ccccc2)c1`, for which the TGI was above 100 µM in the test on UACC-257 melanoma; 73.8 µM in the test on NCI-H226 lung; above 100 µM in the test on SK-MEL-28 melanoma; above 100 µM in the test with SNB-19 CNS; above 100 µM in the test on OVCAR-5 ovarian; above 100 µM in the test on MDA-N. Further, the TGI with HL-60(TB) leukemia was 56.1 µM; with ACHN renal, above 100 µM; in the test with MDA-MB-231 breast, above 100 µM; in the test on UACC-62 melanoma, above 72.7 µM.
As for `CC(C)[C@H](C)/C=C/[C@@H](C)C1CC[C@H]2[C@@]34C=C[C@]5(C[C@@H](O)CC[C@]5(C)[C@H]3CC[C@]12C)OO4` (some centres not stated), the TGI is above 100 µM in the test with UACC-257 melanoma; 49.9 µM in the test on NCI-H226 lung; above 100 µM in the test on SK-MEL-28 melanoma; 81.7 µM in the test with SNB-19 CNS; above 100 µM in the test with OVCAR-5 ovarian; above 100 µM in the test with MDA-N. For the same compound, the TGI with HL-60(TB) leukemia was 57.1 µM; in the test with ACHN renal, above 100 µM; with MDA-MB-231 breast, 84.9 µM; with UACC-62 melanoma, 43.6 µM.
On to `CCOC(=O)c1cc2c3c(c(C(C)=O)c(OC)c2[nH]1)N(C(=O)CC)CC3`, for which the TGI was 49.4 µM in the test on UACC-257 melanoma; 34.2 µM in the test on NCI-H226 lung; 44.7 µM with SK-MEL-28 melanoma; 26.5 µM in the test on SNB-19 CNS; 89.5 µM with OVCAR-5 ovarian; 39.4 µM in the test on MDA-N. Moreover, the TGI came out at 46.7 µM with HL-60(TB) leukemia, 40.9 µM in the test with MDA-MB-231 breast and 34.4 µM in the test with UACC-62 melanoma.
